“And” between values parts separate entries of the source, which are not always exact repeats. Identical values can stand only once.
Assay: Adverse events (TEAEs, SAEs, AESI; Safety Analysis Set)
[1] = Table 43, Part 1, 100 mg QD (N = 31)

Text: In analyses performed on the Safety Analysis Set, subjects will be analyzed according to their actual treatment received.

## CC(=O)N[C@H]1CC[C@H](NC(=O)CN2CCN(c3nncc(-c4ccc(C)cc4)n3)CC2)CC1 [Compound A HBr]
Part 1, 100 mg QD (N = 30)
  On-treatment TEAE, Hyperkalaemia, Mild, %: (26.7) %
  On-treatment TEAE, Infections and infestations, %: (6.7) %
  On-treatment TEAE, Infections and infestations, Moderate, %: (6.7) %
  On-treatment TEAE, Investigations, %: (26.7) %
  On-treatment TEAE, Investigations, Mild, %: (20.0) %
  On-treatment TEAE, Investigations, Moderate, %: (6.7) %
  On-treatment TEAE, Metabolism and nutrition disorders, %: (26.7) %
  On-treatment TEAE, Metabolism and nutrition disorders, Mild, %: (26.7) %
  On-treatment TEAE, Psychiatric disorders, %: (6.7) %
  On-treatment TEAE, Psychiatric disorders, Moderate, %: (6.7) %
  On-treatment TEAE, Urinary tract infection, %: (3.3) %
  On-treatment TEAE, Vascular disorders, %: (3.3) %
  On-treatment TEAE, Vascular disorders, Moderate, %: (3.3) %
  Subjects with any On-treatment TEAEs leading to withdrawal from study drug, %: (13.3) %
  Subjects with any On-treatment TEAEs, Mild, %: (30.0) %
  Subjects with any On-treatment TEAEs, Moderate, %: (23.3) %
  TEAE leading to permanent discontinuation from study drug, Activated partial thromboplastin time prolonged, %: (3.3) %
  TEAE leading to permanent discontinuation from study drug, Hyperkalaemia, %: (6.7) %
  TEAE leading to permanent discontinuation from study drug, Hypotension, %: (3.3) %
  TEAE leading to permanent discontinuation from study drug, Investigations, %: (3.3) %
  TEAE leading to permanent discontinuation from study drug, Metabolism and nutrition disorders, %: (6.7) %
  TEAE leading to permanent discontinuation from study drug, Vascular disorders, %: (3.3) %
Part 1, Active (N = 133)
  On-treatment TEAE, Blood and lymphatic system disorders, %: (1.5) %
  On-treatment TEAE, Blood and lymphatic system disorders, Mild, %: (1.5) %
  On-treatment TEAE, Blood creatinine increased, %: (2.3) %
  On-treatment TEAE, Blood creatinine increased, Mild, %: (2.3) %
  On-treatment TEAE, Cardiac disorders, %: (3.0) %
  On-treatment TEAE, Cortisol decreased, %: (2.3) %
  On-treatment TEAE, Cortisol decreased, Mild, %: (2.3) %
  On-treatment TEAE, Dizziness, %: (2.3) %
  On-treatment TEAE, Gastrointestinal disorders, %: (4.5) %
  On-treatment TEAE, Gastrointestinal disorders, Mild, %: (3.8) %
  On-treatment TEAE, General disorders and administration site conditions, %: (3.8) %
  On-treatment TEAE, General disorders and administration site conditions, Mild, %: (1.5) %
  On-treatment TEAE, Glomerular filtration rate decreased, %: (6.8) %
  On-treatment TEAE, Glomerular filtration rate decreased, Mild, %: (6.0) %
  On-treatment TEAE, Headache, %: (2.3) %
  On-treatment TEAE, Headache, Mild, %: (2.3) %
  On-treatment TEAE, Hyperkalaemia, %: (23.3) %
  On-treatment TEAE, Hyperkalaemia, Mild, %: (19.5) %
  On-treatment TEAE, Hyperkalaemia, Moderate, %: (3.0) %
  On-treatment TEAE, Hyperkalaemia, Severe, %: (0.8) %
  On-treatment TEAE, Hypertension, %: (3.8) %
  On-treatment TEAE, Hypertension, Moderate, %: (2.3) %
  On-treatment TEAE, Infections and infestations, %: (8.3) %
  On-treatment TEAE, Infections and infestations, Mild, %: (3.8) %
  On-treatment TEAE, Infections and infestations, Moderate, %: (4.5) %
  On-treatment TEAE, Investigations, %: (15.8) %
  On-treatment TEAE, Investigations, Mild, %: (12.8) %
  On-treatment TEAE, Investigations, Moderate, %: (3.0) %
  On-treatment TEAE, Metabolism and nutrition disorders, %: (25.6) %
  On-treatment TEAE, Metabolism and nutrition disorders, Mild, %: (21.8) %
  On-treatment TEAE, Metabolism and nutrition disorders, Moderate, %: (3.0) %
  On-treatment TEAE, Nervous system disorders, %: (6.0) %
  On-treatment TEAE, Nervous system disorders, Mild, %: (4.5) %
  On-treatment TEAE, Orthostatic hypotension, %: (2.3) %
  On-treatment TEAE, Orthostatic hypotension, Mild, %: (2.3) %
  On-treatment TEAE, Psychiatric disorders, %: (2.3) %
  On-treatment TEAE, Psychiatric disorders, Moderate, %: (2.3) %
  On-treatment TEAE, Urinary tract infection, %: (5.3) %
  On-treatment TEAE, Urinary tract infection, Mild, %: (3.0) %
  On-treatment TEAE, Vascular disorders, %: (6.8) %
  On-treatment TEAE, Vascular disorders, Mild, %: (3.8) %
  On-treatment TEAE, Vascular disorders, Moderate, %: (3.0) %
  Subjects with any On-treatment TEAEs leading to withdrawal from study drug, %: (7.5) %
  Subjects with any On-treatment TEAEs, Mild, %: (35.3) %
  Subjects with any On-treatment TEAEs, Moderate, %: (18.8) %
  Subjects with any On-treatment TEAEs, Severe, %: (0.8) %
  TEAE leading to permanent discontinuation from study drug, Activated partial thromboplastin time prolonged, %: (0.8) %
  TEAE leading to permanent discontinuation from study drug, Cardiac disorders, %: (0.8) %
  TEAE leading to permanent discontinuation from study drug, Coronary artery disease, %: (0.8) %
  TEAE leading to permanent discontinuation from study drug, Dizziness, %: (0.8) %
  TEAE leading to permanent discontinuation from study drug, Hyperkalaemia, %: (3.8) %
  TEAE leading to permanent discontinuation from study drug, Hypertension, %: (0.8) %
  TEAE leading to permanent discontinuation from study drug, Hypotension, %: (0.8) %
  TEAE leading to permanent discontinuation from study drug, Investigations, %: (0.8) %
  TEAE leading to permanent discontinuation from study drug, Metabolism and nutrition disorders, %: (3.8) %
  TEAE leading to permanent discontinuation from study drug, Nervous system disorders, %: (0.8) %
  TEAE leading to permanent discontinuation from study drug, Orthostatic hypotension, %: (0.8) %
  TEAE leading to permanent discontinuation from study drug, Vascular disorders, %: (2.3) %
Part 1, active drug, listed as lorundrostat
  Subjects with TEAEs considered at least possibly related to study drug: 27 (20.3%) subjects (%)
Part 1 All active, N 159
  AE requiring dose titration: Hyperkalemia: 6 (3.8%)
  AE requiring dose titration: Hyponatremia: 0
  AE requiring dose titration: Other possibly related: 0
  AE requiring dose titration: Other unrelated: 1 (0.6%)
  AE requiring study drug discontinuation: Hyperkalemia: 6 (3.8%)
  AE requiring study drug discontinuation: Hyponatremia: 0
  AE requiring study drug discontinuation: Hypotension: 2 (1.2%)
  AE requiring study drug discontinuation: Other possibly related: 1 (0.6%)
  AE requiring study drug discontinuation: Other unrelated: 11 (6.9%)
Part 1 or Part 2
  Deaths: No deaths
Part 2
  Subjects with TEAE resulting in dose modification: 7 subjects
Part 2 100 mg QD cohort
  Muscle spasms: 3 (9.7%) subjects (%)
  Subjects with ≥1 moderate on-treatment TEAE: 12 (38.7%) subjects (%)
Part 2 100 mg QD, N 31
  AE requiring dose titration: Hyperkalemia: 1 (3.2%)
  AE requiring dose titration: Hyponatremia: 1 (3.2%)
  AE requiring dose titration: Other possibly related: 0
  AE requiring dose titration: Other unrelated: 0
  AE requiring study drug discontinuation: Hyperkalemia: 0
  AE requiring study drug discontinuation: Hyponatremia: 1 (3.4%)
  AE requiring study drug discontinuation: Hypotension: 1 (2.8%)
  AE requiring study drug discontinuation: Other possibly related: 0
  AE requiring study drug discontinuation: Other unrelated: 1 (2.8%)
Part 2, 100 mg QD (N = 31)
  Subjects with any On-treatment TEAEs leading to withdrawal from study drug, %: 6.5%
  TEAE leading to permanent withdrawal from study drug, Glomerular filtration rate decreased, %: 3.2%
  TEAE leading to permanent withdrawal from study drug, Hyponatraemia, %: 3.2%
  TEAE leading to permanent withdrawal from study drug, Investigations, %: 3.2%
  TEAE leading to permanent withdrawal from study drug, Metabolism and nutrition disorders, %: 3.2%
  TEAE leading to permanent withdrawal from study drug, Muscle spasms, %: 3.2%
  TEAE leading to permanent withdrawal from study drug, Musculoskeletal and connective tissue disorders, %: 3.2%
Part 2, lorundrostat
  Subjects with TEAEs considered at least possibly related to study drug: 9 subjects (%) and 9 (29.0%) subjects (%)
[1]
  On-treatment TEAE, Chronic kidney disease, %: (6.5) %
  On-treatment TEAE, Chronic kidney disease, Mild, %: (6.5) %
  On-treatment TEAE, Diarrhoea, %: (6.5) %
  On-treatment TEAE, Diarrhoea, Mild, %: (6.5) %
  On-treatment TEAE, Dizziness, %: (6.5) %
  On-treatment TEAE, Dizziness, Mild, %: (6.5) %
  On-treatment TEAE, Gastrointestinal disorders, %: (16.1) %
  On-treatment TEAE, Gastrointestinal disorders, Mild, %: (9.7) %
  On-treatment TEAE, Gastrointestinal disorders, Moderate, %: (6.5) %
  On-treatment TEAE, Hyperkalaemia, %: (25.8) %
  On-treatment TEAE, Hyperkalaemia, Mild, %: (9.7) %
  On-treatment TEAE, Hyperkalaemia, Moderate, %: (16.1) %
  On-treatment TEAE, Hyponatraemia, %: (6.5) %
  On-treatment TEAE, Infections and infestations, %: (16.1) %
  On-treatment TEAE, Infections and infestations, Mild, %: (6.5) %
  On-treatment TEAE, Infections and infestations, Moderate, %: (9.7) %
  On-treatment TEAE, Investigations, %: (6.5) %
  On-treatment TEAE, Metabolism and nutrition disorders, %: (32.3) %
  On-treatment TEAE, Metabolism and nutrition disorders, Mild, %: (6.5) %
  On-treatment TEAE, Metabolism and nutrition disorders, Moderate, %: (22.6) %
  On-treatment TEAE, Muscle spasms, %: (9.7) %
  On-treatment TEAE, Muscle spasms, Moderate, %: (6.5) %
  On-treatment TEAE, Musculoskeletal and connective tissue disorders, %: (16.1) %
  On-treatment TEAE, Musculoskeletal and connective tissue disorders, Mild, %: (6.5) %
  On-treatment TEAE, Musculoskeletal and connective tissue disorders, Moderate, %: (9.7) %
  On-treatment TEAE, Nausea, %: (6.5) %
  On-treatment TEAE, Nausea, Mild, %: (6.5) %
  On-treatment TEAE, Nervous system disorders, %: (6.5) %
  On-treatment TEAE, Nervous system disorders, Mild, %: (6.5) %
  On-treatment TEAE, Renal and urinary disorders, %: (6.5) %
  On-treatment TEAE, Renal and urinary disorders, Mild, %: (6.5) %
  On-treatment TEAE, Urinary tract infection, %: (6.5) %
  Subjects with any On-treatment TEAEs, Mild, %: (19.4) %
  Subjects with any On-treatment TEAEs, Moderate, %: (38.7) %
  Subjects with any On-treatment TEAEs, Severe, %: (3.2) %
Total active, N 190
  AE requiring dose titration: Hyperkalemia: 7 (4.1%)
  AE requiring dose titration: Hyponatremia: 1 (0.5%)
  AE requiring dose titration: Other possibly related: 0
  AE requiring dose titration: Other unrelated: 1 (0.5%)
  AE requiring study drug discontinuation: Hyperkalemia: 6 (3.2%)
  AE requiring study drug discontinuation: Hyponatremia: 1 (0.5%)
  AE requiring study drug discontinuation: Hypotension: 3 (1.6%)
  AE requiring study drug discontinuation: Other possibly related: 1 (0.5%)
  AE requiring study drug discontinuation: Other unrelated: 12 (6.3%)
Fall of 20 mmHg in SBP or 10 mmHg in DBP sitting to standing
  Subjects who developed orthostatic hypotension: three
Two in 100 mg QD cohorts (Part 1, Part 2), one 12.5 mg BID, reversible with treatment cessation
  Subjects with hypotension related to treatment: three
Whole study
  Overall safety and tolerability: safe and well tolerated

Source: US20260053812A1, “METHODS OF TREATING HYPERTENSION WITH A COMBINATION OF AN ALDOSTERONE SYNTHASE INHIBITOR AND A DIURETIC” (Mineralys Therapeutics, Inc., priority 2022, published 2026)
